ChEMBL document CHEMBL2146470, “Novel Carboxamide-Based Allosteric MEK Inhibitors: Discovery and Optimization Efforts toward XL518 (GDC-0973)” (ACS Med Chem Lett, 2012)
pIC50: −log10 of the molar value. One block for each compound: values may come before it.

Columns and labels:
[1] = target: Dual specificity mitogen-activated protein kinase kinase 1 (Homo sapiens, UniProt Q02750)
Description: Inhibition of MEK1-mediated ERK2 T202/Y204 phosphorylation using biotinylated MBP as substrate preincubated for 30 mins measured after 100 mins by cRAF-MEK-ERK enzyme coupled assay

[2] = target: Dual specificity mitogen-activated protein kinase kinase; MEK1/2 (Homo sapiens, UniProt P36507+Q02750)
Description: Inhibition of MEK-mediated ERK T202/Y204 phosphorylation in human MDA-MB-231T cells after 1 hr by immunoblotting

[3] = system: Rattus norvegicus; experiment: Dose normalised AUC (0 to t) in Sprague-Dawley rat at 5 mg/kg, po; type: ADME, organism-based; set-up: dose 5 mg/kg, route oral; details: in vivo
[4] = Drug uptake in tumor of nude NCr mouse xenografted with human MDA-MB-231T cells at 30 mg/kg, po measured after 2 hrs by LC-MS analysis; type: ADME, organism-based, Neoplasm; set-up: dose 30 mg/kg, route oral; details: read-out: Drug uptake
[5] = Drug metabolism in rat liver microsomes at 15 uM after 30 mins; type: ADME, Microsome; details: read-out: Drug metabolism
[6] = Drug uptake in tumor of nude NCr mouse xenografted with human MDA-MB-231T cells at 30 mg/kg, po measured after 24 hrs by LC-MS analysis; type: ADME, organism-based, Neoplasm; set-up: dose 30 mg/kg, route oral; details: read-out: Drug uptake
[7] = Clearance in Sprague-Dawley rat at 5 mg/kg, po; type: ADME, organism-based; set-up: dose 5 mg/kg, route oral; details: in vivo
[8] = system: Mus musculus; experiment: Inhibition of MEK-mediated ERK T202/Y204 phosphorylation in nude NCr mouse brain xenografted with human MDA-MB-231T cells at 30 mg/kg, po after 24 hrs by immunoblotting; type: functional
[9] = system: Mus musculus; experiment: Inhibition of MEK-mediated ERK T202/Y204 phosphorylation in po dosed nude NCr mouse brain xenografted with human MDA-MB-231T cells from 2 to 24 hrs by immunoblotting; type: functional
[10] = system: Mus musculus; experiment: Inhibition of MEK-mediated ERK T202/Y204 phosphorylation in human MDA-MB-231T cells xenografted in nude NCr mouse tumor at 30 mg/kg, po after 2 hrs by immunoblotting; type: functional
[11] = Half life in Sprague-Dawley rat at 5 mg/kg, po; type: ADME, organism-based; set-up: dose 5 mg/kg, route oral; details: in vivo
[12] = Plasma concentration in nude NCr mouse xenografted with human MDA-MB-231T cells at 30 mg/kg, po measured after 2 hrs by LC-MS analysis; type: ADME, organism-based; set-up: dose 30 mg/kg, route oral
[13] = system: Mus musculus; experiment: Inhibition of MEK-mediated ERK T202/Y204 phosphorylation in human MDA-MB-231T cells xenografted in nude NCr mouse tumor at 30 mg/kg, po after 24 hrs by immunoblotting; type: functional
[14] = Drug uptake in brain of nude NCr mouse xenografted with human MDA-MB-231T cells at 30 mg/kg, po measured after 2 hrs by LC-MS analysis; type: ADME, organism-based; set-up: dose 30 mg/kg, route oral; details: read-out: Drug uptake
[15] = Apparent permeability across MDCK cells; type: ADME, cell-based, Canis lupus familiaris; details: dog
[16] = Plasma concentration in nude NCr mouse xenografted with human MDA-MB-231T cells at 30 mg/kg, po measured after 24 hrs by LC-MS analysis; type: ADME, organism-based; set-up: dose 30 mg/kg, route oral
[17] = Oral bioavailability in Sprague-Dawley rat at 5 mg/kg; type: ADME, organism-based; details: in vivo
[18] = Drug uptake in brain of nude NCr mouse xenografted with human MDA-MB-231T cells at 30 mg/kg, po measured after 24 hrs by LC-MS analysis; type: ADME, organism-based; set-up: dose 30 mg/kg, route oral; details: read-out: Drug uptake
[19] = system: Mus musculus; experiment: Inhibition of MEK-mediated ERK T202/Y204 phosphorylation in nude NCr mouse brain xenografted with human MDA-MB-231T cells at 30 mg/kg, po after 2 hrs by immunoblotting; type: functional

Sequence of Dual specificity mitogen-activated protein kinase kinase 1 (Q02750 whole entry): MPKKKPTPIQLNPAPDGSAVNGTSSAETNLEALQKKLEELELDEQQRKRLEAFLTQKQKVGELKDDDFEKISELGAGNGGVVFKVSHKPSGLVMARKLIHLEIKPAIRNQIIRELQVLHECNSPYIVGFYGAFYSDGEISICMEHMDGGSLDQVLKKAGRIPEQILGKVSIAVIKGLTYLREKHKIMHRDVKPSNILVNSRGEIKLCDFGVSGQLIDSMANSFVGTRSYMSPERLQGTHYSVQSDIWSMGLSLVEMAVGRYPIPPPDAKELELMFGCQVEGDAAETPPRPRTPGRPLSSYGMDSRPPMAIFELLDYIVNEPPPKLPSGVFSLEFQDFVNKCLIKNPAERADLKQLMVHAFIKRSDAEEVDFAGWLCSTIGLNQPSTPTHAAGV

pIC50 [1]: 8.32
IC50 [2]: 11 nM
SMILES: CC(C)(C)NCC1(O)CN(C(=O)c2ccc(F)c(F)c2Nc2ccc(I)cc2F)C1

pIC50 [1]: 5.77
IC50 [2]: 331 nM
SMILES: O=C(c1ccc(F)c(F)c1Nc1ccc(I)cc1F)N1CC(O)(CN2CCOCC2)C1

pIC50 [1]: 6.10
IC50 [2]: 128 nM
SMILES: O=C(NCCC(O)CO)c1ccc(F)c(F)c1Nc1ccc(I)cc1F (stereo not given)

AUCt/dose [3]: 1.57 µM·h/mg/kg
concentration at 2 h [4]: 7360 nM
metabolised at 0.5 h, 15 µM [5]: 16.2%
concentration at 24 h [6]: 26800 nM
CL/F [7]: 12.6 mL/min/kg
half-life [11]: 9.1 h
concentration at 2 h [12]: 2400 nM
concentration at 2 h [14]: 730 nM
Papp [15]: 4.3 ×10⁻⁶ cm/s
concentration at 24 h [16]: 30 nM
pIC50 [1]: 8.18
bioavailability [17]: 78%
concentration at 24 h [18]: 1240 nM
IC50 [2]: 57 nM
SMILES: NCC1(O)CN(C(=O)c2ccc(F)c(F)c2Nc2ccc(I)cc2F)C1
inhibition in vivo at 30 mg/kg [8]: 17%
ED50 [9]: > 30 mg/kg
inhibition in vivo at 30 mg/kg [10]: 27%
inhibition in vivo at 30 mg/kg [13]: 44%
inhibition in vivo at 30 mg/kg [19]: 23%
